# Measured values from PubChem BioAssay AID1963830 (Molecular Pharmacology Branch, DTP, NCI, 2024).
# Test system: 922993-354-T-J3-PDC complex spheroid viability
# Test: Anticancer human tumor 922993-354-T-J3-PDC patient-derived endometrial carcinoma cell line growth inhibition [POLQ]
# Conditions: for IC50: curve of first compound; for viability, T/C: stronger effect = lower value
# Procedure, shortened: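 Complex spheroid viability model combining PDC tumour cells with endothelial (HUVEC) and MSC stromal cells. Novobiocin, ART-558 or RP6685 were tested singly and in combination with standard and investigational anticancer drugs. Each was titrated in half-log steps from near clinical Cmax, or from 10 microM where Cmax was unknown.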
# [1] = second compound 0.0316 µM, first compound 0.0316 µM
# [2] = second compound 0.0316 µM, first compound 0.1 µM
# [3] = second compound 0.0316 µM, first compound 0.316 µM
# [4] = second compound 0.0316 µM, first compound 1 µM
# [5] = second compound 0.0316 µM, first compound 3.16 µM
# [6] = second compound 0.0316 µM, first compound 10 µM
# [7] = second compound 0.1 µM, first compound 0.0316 µM
# [8] = second compound 0.1 µM, first compound 0.1 µM
# [9] = second compound 0.1 µM, first compound 0.316 µM
# [10] = second compound 0.1 µM, first compound 1 µM
# [11] = second compound 0.1 µM, first compound 3.16 µM
# [12] = second compound 0.1 µM, first compound 10 µM
# [13] = second compound 0.316 µM, first compound 0.0316 µM
# [14] = second compound 0.316 µM, first compound 0.1 µM
# [15] = second compound 0.316 µM, first compound 0.316 µM
# [16] = second compound 0.316 µM, first compound 1 µM
# [17] = second compound 0.316 µM, first compound 3.16 µM
# [18] = second compound 0.316 µM, first compound 10 µM
# [19] = second compound 1 µM, first compound 0.0316 µM
# [20] = second compound 1 µM, first compound 0.1 µM
# [21] = second compound 1 µM, first compound 0.316 µM
# [22] = second compound 1 µM, first compound 1 µM
# [23] = second compound 1 µM, first compound 3.16 µM
# [24] = second compound 1 µM, first compound 10 µM
# [25] = second compound 3.16 µM, first compound 0.0316 µM
# [26] = second compound 3.16 µM, first compound 0.1 µM
# [27] = second compound 3.16 µM, first compound 0.316 µM
# [28] = second compound 3.16 µM, first compound 1 µM
# [29] = second compound 3.16 µM, first compound 3.16 µM
# [30] = second compound 3.16 µM, first compound 10 µM
# [31] = second compound 10 µM, first compound 0.0316 µM
# [32] = second compound 10 µM, first compound 0.1 µM
# [33] = second compound 10 µM, first compound 0.316 µM
# [34] = second compound 10 µM, first compound 1 µM
# [35] = second compound 10 µM, first compound 3.16 µM
# [36] = second compound 10 µM, first compound 10 µM
# 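Further: spheroids exposed to the agents for one week.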
# 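Wherever viability, T/C is given: 100% = DMSO vehicle control wells.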
compound,measurement,setting,value
CC1COCCN1c1cc(C2(S(C)(=N)=O)CC2)nc(-c2ccnc3[nH]ccc23)n1 (stereo unspecified) + Nc1ccc(C#CCN(C(=O)Cc2ncc(C(F)(F)F)cc2C(F)(F)F)c2ccc(F)cc2)nn1,IC50,second compound 0.0316 µM,> 10 µM
same,IC50,second compound 0.1 µM,> 10 µM
same,IC50,second compound 0.316 µM,> 10 µM
same,IC50,second compound 1 µM,> 10 µM
same,IC50,second compound 3.16 µM,> 10 µM
same,IC50,second compound 10 µM,6.37 µM
same,"viability, T/C",[1],104%
same,"viability, T/C",[2],106%
same,"viability, T/C",[3],98.7%
same,"viability, T/C",[4],106%
same,"viability, T/C",[5],95.5%
same,"viability, T/C",[6],88.5%
same,"viability, T/C",[7],107%
same,"viability, T/C",[8],105%
same,"viability, T/C",[9],101%
same,"viability, T/C",[10],102%
same,"viability, T/C",[11],105%
same,"viability, T/C",[12],89.2%
same,"viability, T/C",[13],105%
same,"viability, T/C",[14],101%
same,"viability, T/C",[15],101%
same,"viability, T/C",[16],97.2%
same,"viability, T/C",[17],105%
same,"viability, T/C",[18],91.6%
same,"viability, T/C",[19],102%
same,"viability, T/C",[20],99%
same,"viability, T/C",[21],102%
same,"viability, T/C",[22],98.9%
same,"viability, T/C",[23],101%
same,"viability, T/C",[24],89.6%
same,"viability, T/C",[25],103%
same,"viability, T/C",[26],95%
same,"viability, T/C",[27],102%
same,"viability, T/C",[28],95.5%
same,"viability, T/C",[29],101%
same,"viability, T/C",[30],85.3%
same,"viability, T/C",[31],98.3%
same,"viability, T/C",[32],96.5%
same,"viability, T/C",[33],98.7%
same,"viability, T/C",[34],92.9%
same,"viability, T/C",[35],81.6%
same,"viability, T/C",[36],29.9%
COc1ccc([C@@H](O)c2cc(-c3ncnc4cc(N5CCOCC5)ccc34)c(F)cc2Cl)nn1 + Nc1ccc(C#CCN(C(=O)Cc2ncc(C(F)(F)F)cc2C(F)(F)F)c2ccc(F)cc2)nn1,IC50,second compound 0.0316 µM,> 10 µM
same,IC50,second compound 0.1 µM,> 10 µM
same,IC50,second compound 0.316 µM,> 10 µM
same,IC50,second compound 1 µM,> 10 µM
same,IC50,second compound 3.16 µM,> 10 µM
same,IC50,second compound 10 µM,> 10 µM
same,"viability, T/C",[1],103%
same,"viability, T/C",[2],103%
same,"viability, T/C",[3],98%
same,"viability, T/C",[4],100%
same,"viability, T/C",[5],91.3%
same,"viability, T/C",[6],73.8%
same,"viability, T/C",[7],106%
same,"viability, T/C",[8],104%
same,"viability, T/C",[9],100%
same,"viability, T/C",[10],97.9%
same,"viability, T/C",[11],93.7%
same,"viability, T/C",[12],75.5%
same,"viability, T/C",[13],106%
same,"viability, T/C",[14],99.2%
same,"viability, T/C",[15],101%
same,"viability, T/C",[16],97.4%
same,"viability, T/C",[17],87.3%
same,"viability, T/C",[18],74.9%
same,"viability, T/C",[19],105%
same,"viability, T/C",[20],102%
same,"viability, T/C",[21],99.1%
same,"viability, T/C",[22],93.5%
same,"viability, T/C",[23],89.4%
same,"viability, T/C",[24],74.9%
same,"viability, T/C",[25],97.1%
same,"viability, T/C",[26],97%
same,"viability, T/C",[27],93.5%
same,"viability, T/C",[28],92.5%
same,"viability, T/C",[29],86.5%
same,"viability, T/C",[30],72%
same,"viability, T/C",[31],97.3%
same,"viability, T/C",[32],89%
same,"viability, T/C",[33],91.4%
same,"viability, T/C",[34],91.9%
same,"viability, T/C",[35],90.3%
same,"viability, T/C",[36],68.8%
Cn1ncnc1[C@H]1c2n[nH]c(=O)c3cc(F)cc(c23)N[C@@H]1c1ccc(F)cc1 + Nc1ccc(C#CCN(C(=O)Cc2ncc(C(F)(F)F)cc2C(F)(F)F)c2ccc(F)cc2)nn1,IC50,second compound 0.0316 µM,> 0.1 µM
same,IC50,second compound 0.1 µM,> 0.1 µM
same,IC50,second compound 0.316 µM,> 0.1 µM
same,IC50,second compound 1 µM,> 0.1 µM
same,IC50,second compound 3.16 µM,> 0.1 µM
same,IC50,second compound 10 µM,> 0.1 µM
same,"viability, T/C","second compound 0.0316 µM, first compound 0.000316 µM",97.9%
same,"viability, T/C","second compound 0.0316 µM, first compound 0.001 µM",102%
same,"viability, T/C","second compound 0.0316 µM, first compound 0.00316 µM",101%
same,"viability, T/C","second compound 0.0316 µM, first compound 0.01 µM",98.3%
same,"viability, T/C",[1],101%
same,"viability, T/C",[2],89.2%
same,"viability, T/C","second compound 0.1 µM, first compound 0.000316 µM",107%
same,"viability, T/C","second compound 0.1 µM, first compound 0.001 µM",102%
same,"viability, T/C","second compound 0.1 µM, first compound 0.00316 µM",102%
same,"viability, T/C","second compound 0.1 µM, first compound 0.01 µM",98.1%
same,"viability, T/C",[7],102%
same,"viability, T/C",[8],86.5%
same,"viability, T/C","second compound 0.316 µM, first compound 0.000316 µM",104%
same,"viability, T/C","second compound 0.316 µM, first compound 0.001 µM",106%
same,"viability, T/C","second compound 0.316 µM, first compound 0.00316 µM",100%
same,"viability, T/C","second compound 0.316 µM, first compound 0.01 µM",96.6%
same,"viability, T/C",[13],96%
same,"viability, T/C",[14],89.6%
same,"viability, T/C","second compound 1 µM, first compound 0.000316 µM",105%
same,"viability, T/C","second compound 1 µM, first compound 0.001 µM",101%
same,"viability, T/C","second compound 1 µM, first compound 0.00316 µM",98.7%
same,"viability, T/C","second compound 1 µM, first compound 0.01 µM",98.1%
same,"viability, T/C",[19],96.8%
same,"viability, T/C",[20],86.2%
same,"viability, T/C","second compound 3.16 µM, first compound 0.000316 µM",102%
same,"viability, T/C","second compound 3.16 µM, first compound 0.001 µM",99%
same,"viability, T/C","second compound 3.16 µM, first compound 0.00316 µM",93%
same,"viability, T/C","second compound 3.16 µM, first compound 0.01 µM",95.4%
same,"viability, T/C",[25],89.2%
same,"viability, T/C",[26],82.6%
same,"viability, T/C","second compound 10 µM, first compound 0.000316 µM",101%
same,"viability, T/C","second compound 10 µM, first compound 0.001 µM",94.9%
same,"viability, T/C","second compound 10 µM, first compound 0.00316 µM",94.8%
same,"viability, T/C","second compound 10 µM, first compound 0.01 µM",85.7%
same,"viability, T/C",[31],71.9%
same,"viability, T/C",[32],53.4%
